Test results taken from patent US10064871B2, “Methods of treating skin disorders” (Biomimetix JV, LLC, priority 2014, dated 2018).

Columns and labels:
[1] = tested on: psoriatic involvement of the scalp; test: Topical treatment of psoriatic involvement of the scalp of one subject; type: in vivo, human
Description: A second subject with psoriatic involvement of the scalp of moderate severity was topically treated with MnTnBuOE-2-PyP^5+0.1% in LIPODERM® cream base twice daily for 3 weeks.

plaque-forming psoriasis = test: Topical treatment of plaque-forming psoriasis on the legs of one subject; type: in vivo, human
Protocol: The therapeutic efficacy of MnTnBuOE-2-PyP^5+ when topically delivered was evaluated in a person with large areas of moderately severe plaque-forming psoriasis on upper and lower portions of both legs, with each involved area being approximately 10-20 cm in diameter. MnTnBuOE-2-PyP^5+ was formulated in LIPODERM® topical compounding cream base (available from the Professional Compounding Centers of America (PCCA)). at 0.01% and 0.1% concentrations producing a light brown cream which was applied b.i.d. to lesions on one extremity.

[2] = 0.01% and 0.1% in LIPODERM cream base, topical b.i.d., within 5 days

For “Manganese ortho tetrakis(N-n-butoxyethylpyridinium-2-yl)porphyrin [MnTnBuOE-2-PyP^5+]”, the “return of the psoriatic reaction” value ([1]; 30 days after treatment stopped, 0.1% in LIPODERM cream base twice daily for 3 weeks) was “No return of the psoriatic reaction was observed”, the “psoriatic scalp reaction after treatment” value ([1]; person, moderate severity, 0.1% in LIPODERM cream base, topical twice daily for 3 weeks) was “Complete resolution” and the “time to marked improvement” value (plaque-forming psoriasis; 0.01% and 0.1% in LIPODERM cream base, topical b.i.d.) was no more than 5 days. For the same substance, the “area of remaining mild psoriatic reaction” value (plaque-forming psoriasis; [2]) was “decrease in the area of remaining mild psoriatic reaction”, the clinical irritation (plaque-forming psoriasis; [2]) was “marked decrease in clinical irritation” and the inflammation of lesions (plaque-forming psoriasis; [2]) was “decreased inflammation”. The “efficacy of 0.01% compared with 0.1% cream” value (plaque-forming psoriasis; lesions treated with 0.01% and 0.1% in LIPODERM cream base) was “Equivalent efficacy” and the “clinical improvement of psoriatic lesions” value (plaque-forming psoriasis; person, moderately severe plaque psoriasis of legs, 0.01% and 0.1% in LIPODERM cream base, topical b.i.d.) was “Marked improvement”.
